This is an account of results in ChEMBL document CHEMBL2163206, “New nitrogen containing substituents at the indole-2-carboxamide yield high potent and broad spectrum indolylarylsulfone HIV-1 non-nucleoside reverse transcriptase inhibitors” (J Med Chem, 2012).

SMILES strings stand for the structures. Some results are limits rather than exact numbers.

A word on the IC50: it is the concentration that gives 50% inhibition. Low values mean higher potency, high ones lower potency. In general, EC50 refers to the concentration at which the effect is half-maximal. What is called CC50 is the concentration that lowers cell viability or growth by half.

The target of data set [1] is Human immunodeficiency virus type 1 reverse transcriptase (Human immunodeficiency virus 1, UniProt Q72547, L100I). In words: Inhibition of HIV1 reverse transcriptase L100I mutant RNA-dependent DNA polymerase activity using poly(rA)/oligo(dT)10:1 and [3H]-dTTP substrate.
The target of data set [2] is Human immunodeficiency virus type 1 reverse transcriptase (Human immunodeficiency virus 1, UniProt Q72547, K103N). Nature of the data set: Inhibition of HIV1 reverse transcriptase K103N mutant RNA-dependent DNA polymerase activity using poly(rA)/oligo(dT)10:1 and [3H]-dTTP substrate.
In data set [3] the target is Human immunodeficiency virus type 1 reverse transcriptase (Human immunodeficiency virus 1, UniProt Q72547). Nature of the data set: Inhibition of wild type HIV1 reverse transcriptase RNA-dependent DNA polymerase activity using poly(rA)/oligo(dT)10:1 and [3H]-dTTP substrate.
The test system of data set [4] is Human immunodeficiency virus 1. In kind it is functional, organism-based. As to conditions: Human immunodeficiency virus 1, MT4, 120 h.
Data set [5] has as its system Human immunodeficiency virus 1. Nature of the data set: Antiviral activity against HIV1 containing reverse transcriptase K103N mutant infected in human MT4 cells assessed as inhibition of virus-induced cytopathicity measured 5 days post infection by MTT assay. The format is functional, organism-based. The conditions noted are these: Human immunodeficiency virus 1, MT4, 120 h. On the technique in general: Cytopathic effects are the visible damage that an infection or toxin causes in cultured cells.

Data set [6] can be described thus: Cytotoxicity against mock-infected human MT4 cells measured after 5 days by MTT assay. The format is cell-based. In general terms: Formazan colour is commonly taken as a measure of viable cells.
Data set [7] has as its system Human immunodeficiency virus 1. In words: Antiviral activity against HIV1 NL4-3 infected in human MT4 cells assessed as inhibition of virus-induced cytopathicity measured 5 days post infection by MTT assay. The format is functional, organism-based. As to conditions: Human immunodeficiency virus 1, NL4-3, MT4, 120 h.
A further data set is described as follows: in vitro. The conditions noted are these: human.
In data set [8] the test system is Human immunodeficiency virus 1. Nature of the data set: microbe, parasite or virus in culture. The conditions noted are these: Human immunodeficiency virus 1, MT4, 120 h.
Description: Antiviral activity against HIV1 containing reverse transcriptase Y188L mutant infected in human MT4 cells assessed as inhibition of virus-induced cytopathicity measured 5 days post infection by MTT assay
In data set [9] the test system is Human immunodeficiency virus 1. In words: microbe, parasite or virus in culture. The conditions noted are these: Human immunodeficiency virus 1, clade G (BCF-DIOUM).
Description: Antiviral activity against HIV1 clade G (BCF-DIOUM) infected in human PBMCs assessed as inhibition of p24 antigen production by ELISA
The subject of data set [10] is Human immunodeficiency virus 1. Nature of the data set: microbe, parasite or virus in culture. As to conditions: Human immunodeficiency virus 1, clade F (BZ162).
Description: Antiviral activity against HIV1 clade F (BZ162) infected in human PBMCs assessed as inhibition of p24 antigen production by ELISA
Data set [11] deals with Human immunodeficiency virus 1. In words: microbe, parasite or virus in culture. As to conditions: Human immunodeficiency virus 1, clade B (BaL).
Description: Antiviral activity against HIV1 clade B (BaL) infected in human PBMCs assessed as inhibition of p24 antigen production by ELISA
Data set [12] deals with Human immunodeficiency virus 1. In words: microbe, parasite or virus in culture. As to conditions: Human immunodeficiency virus 1, clade A (UG273).
Description: Antiviral activity against HIV1 clade A (UG273) infected in human PBMCs assessed as inhibition of p24 antigen production by ELISA
In data set [13] the test system is Human immunodeficiency virus 1. Nature of the data set: microbe, parasite or virus in culture. The conditions noted are these: Human immunodeficiency virus 1, clade A/E (ID12).
Description: Antiviral activity against HIV1 clade A/E (ID12) infected in human PBMCs assessed as inhibition of p24 antigen production by ELISA
Data set [14] concerns Human immunodeficiency virus 1. In words: microbe, parasite or virus in culture. As to conditions: Human immunodeficiency virus 1, clade C (SM145).
Description: Antiviral activity against HIV1 clade C (SM145) infected in human PBMCs assessed as inhibition of p24 antigen production by ELISA
Data set [15] has as its system Human immunodeficiency virus 1. In words: microbe, parasite or virus in culture. As to conditions: Human immunodeficiency virus 1, clade C (DJ259).
Description: Antiviral activity against HIV1 clade C (DJ259) infected in human PBMCs assessed as inhibition of p24 antigen production by ELISA
Data set [16] concerns Human immunodeficiency virus 1. In words: microbe, parasite or virus in culture. As to conditions: Human immunodeficiency virus 1, clade D (UG270).
Description: Antiviral activity against HIV1 clade D (UG270) infected in human PBMCs assessed as inhibition of p24 antigen production by ELISA
Data set [17] has as its system Human immunodeficiency virus 1. In kind it is functional, organism-based. The conditions noted are these: Human immunodeficiency virus 1, IRLL98, MT4, 120 h.
Data set [18] concerns Human immunodeficiency virus 2. In words: Antiviral activity against HIV2 infected in human PBMCs assessed as inhibition of p24 antigen production by ELISA. The format is functional, organism-based.
Data set [19] deals with Human immunodeficiency virus 1. In words: Antiviral activity against HIV1 NL4-3 infected in human PBMCs assessed as inhibition of p24 antigen production by ELISA. The conditions noted are these: Human immunodeficiency virus 1, NL4-3. The format is functional, organism-based. In general terms: ELISA stands for enzyme-linked immunosorbent assay.
For data set [20], the system named is Human immunodeficiency virus 1. Nature of the data set: Potency index, ratio of EC50 for Efavirenz to EC50 for compound against HIV1 containing reverse transcriptase K103N mutant infected in human MT4 cells assessed as inhibition of virus-induced cytopathicity measured 5 days post infection by MTT assay. The format is functional.

Description for in vitro: Selectivity index, ratio of CC50 for mock-infected human MT4 cells to EC50 for HIV1 NL4-3 infected in human MT4 cells

Consider `Cc1cc(C)cc(S(=O)(=O)c2c(C(=O)NCc3ccc(C#N)cc3)[nH]c3ccc(Cl)cc23)c1`, for which the half-inhibitory concentration (IC50) in [1] is over 4 nM; in data set [2], over 10 nM; in [3], over 10 nM. In addition, the EC50 in data set [4] was 32.1 nM; in data set [5] it was 118 nM; in data set [7], 1.5 nM; in data set [8], over 10700 nM. Also, in [6], the half-maximal cytotoxic concentration (CC50) at 120 h is over 10500 nM. In the data set “in vitro”, the selectivity ratio is over 6970.
In data set [6], `Cc1cc(C)cc(S(=O)(=O)c2c(C(=O)Nc3ccccc3C#N)[nH]c3ccc(Cl)cc23)c1` displayed a CC50 at 120 h of over 10800 nM. In data set [7], the EC50 came out at 2 nM. Also, the selectivity ratio in “in vitro” was over 5390.
Take `Cc1nnc(C(C)C)n1[C@H]1C[C@H]2CC[C@@H](C1)N2CC[C@H](NC(=O)C1CCC(F)(F)CC1)c1ccccc1` (relative stereo) [MARAVIROC]: the EC50 in [9], in [10], in data set [11], in [12], in data set [13] and in data set [14] was 1 nM in each case. The EC50 in [15] and in data set [16] was 1 nM in each case.
Compound `Cc1cc(C)cc(S(=O)(=O)c2c(C(=O)NCCc3ccccn3)[nH]c3ccc(Cl)cc23)c1` showed a CC50 at 120 h in data set [6] of over 10700 nM. In addition, the EC50 in data set [7] came to 2 nM. Also, in “in vitro”, the selectivity ratio is over 5340.
On the same counts, the results for `Cc1cc(C)cc(S(=O)(=O)c2c(C(=O)NCCc3ccncc3)[nH]c3ccc(Cl)cc23)c1` are over 10700 nM, 2 nM and over 5340.
As to `Cc1cc(C)cc(S(=O)(=O)c2c(C(=O)NCc3cccnc3)[nH]c3ccc(Cl)cc23)c1`, the half-inhibitory concentration (IC50) came to 8 nM in data set [1], 32 nM in data set [2] and 20 nM in [3]. Further, the EC50 was determined as 8.8 nM in [4], 37.8 nM in [5], 2.2 nM in [7] and 44 nM in [8]. The compound also yielded a CC50 at 120 h in data set [6] of over 11000 nM. For the same compound, the selectivity ratio in “in vitro” was over 5010.
As for `Cc1cc(C)cc(S(=O)(=O)c2c(C(=O)Nc3cccc(C#N)c3)[nH]c3ccc(Cl)cc23)c1`, the figures for the IC50 in [1], in data set [2] and in data set [3] were 287 nM, over 40 nM and 506 nM, respectively. Moreover, the half-maximal effective concentration (EC50) in data set [4] was 44 nM; in data set [5] it was 19.8 nM; in [7] it was 2.2 nM; in data set [8], 1390 nM. This compound returned a CC50 at 120 h in data set [6] of over 10800 nM. In addition, the selectivity ratio in “in vitro” is over 4900.
As for `Cc1cc(C)cc(S(=O)(=O)c2c(C(=O)NCc3ccccn3)[nH]c3ccc(Cl)cc23)c1`, the CC50 at 120 h in [6] is over 11000 nM. Besides, in [7], the EC50 worked out at 2 nM. Further, the selectivity ratio in the data set “in vitro” is over 5510.
`Cc1cc(C)cc(S(=O)(=O)c2c(C(=O)NC(C)C(N)=O)[nH]c3ccc(Cl)cc23)c1` (racemic) returned a CC50 at 120 h in data set [6] of 6040 nM. Further, in [7], the EC50 amounted to 2 nM. Moreover, in “in vitro”, the selectivity ratio was found to be 3020.
Take `Cc1ccnc2c1NC(=O)c1cccnc1N2C1CC1` [NEVIRAPINE]: the EC50 is over 18900 nM in data set [17]; over 3760 nM in data set [4]; over 3760 nM in data set [5]; 1500 nM in [7]; over 3760 nM in [8]. The same compound returned a CC50 at 120 h in data set [6] of over 18800 nM.
With `O=C1Nc2ccc(Cl)cc2[C@@](C#CC2CC2)(C(F)(F)F)O1` [EFAVIRENZ], the EC50 was found to be 980 nM in data set [17], 158 nM in data set [4], 69.3 nM in [5] and 6.3 nM in [7]. In data set [6], this compound displayed a 50% cytotoxic concentration (CC50) at 120 h of over 15800 nM.
As for `Cc1cn([C@H]2C[C@H](N=[N+]=[N-])[C@@H](CO)O2)c(=O)[nH]c1=O` [ZIDOVUDINE], the half-maximal effective concentration (EC50) in data set [17] is 3.8 nM; in data set [4], 1.6 nM; in [5] it was 15.6 nM; in data set [7], 7.8 nM; in [8], 11.7 nM. In [6], this compound came in with a 50% cytotoxic concentration (CC50) at 120 h of over 18700 nM. Besides, in the data set “in vitro”, the selectivity ratio is over 2400.
Consider `Cc1cc(C)cc(S(=O)(=O)c2c(C(=O)NCc3ccncc3)[nH]c3ccc(Cl)cc23)c1`, for which the IC50 in [1] turned out to be 11 nM; in data set [2], 45 nM; in data set [3], 21 nM. Moreover, the EC50 was over 200 nM in data set [18]; 0.4 nM in data set [19]; 1 nM in data set [17]; 2.2 nM in [4]; 8.8 nM in data set [5]; 2 nM in data set [7]. Besides, the half-maximal effective concentration (EC50) in data set [9] was 1.7 nM; in data set [10], 0.6 nM; in [11], 0.1 nM; in data set [12], 0.6 nM; in data set [8], 22 nM; in data set [13] it was 0.6 nM. Further, the EC50 in data set [14] was 0.3 nM; in data set [15], 0.4 nM; in data set [16] it was 0.4 nM. Moreover, in data set [20], the “Ratio EC50” value was found to be 8. Also, the CC50 at 120 h in data set [6] is over 11000 nM. The selectivity ratio in the data set “in vitro” is over 5510.
As for `Cc1cc(C)cc(S(=O)(=O)c2c(C(=O)Nc3ccc(C#N)cc3)[nH]c3ccc(Cl)cc23)c1`, in data set [6], the CC50 at 120 h is over 10800 nM. Besides, in data set [7], the EC50 was determined as 11 nM. Besides, in “in vitro”, the selectivity ratio is over 980.
As for `Cc1cc(C)cc(S(=O)(=O)c2c(C(=O)NCCc3cccnc3)[nH]c3ccc(Cl)cc23)c1`, the IC50 in data set [1] was found to be 24 nM; in data set [2], 162 nM; in data set [3] it was 40 nM. The EC50 in data set [4] was found to be 6.3 nM; in data set [5], 27.3 nM; in data set [7], 2.1 nM; in data set [8] it was 504 nM. For the same compound, the CC50 at 120 h in [6] is over 10700 nM. For the same compound, in “in vitro”, the selectivity ratio was over 5090.
In data set [6], `Cc1cc(C)cc(S(=O)(=O)c2c(C(=O)NCc3ccnc4ccccc34)[nH]c3ccc(Cl)cc23)c1` registered a half-maximal cytotoxic concentration (CC50) at 120 h of over 9920 nM. In addition, the 50% effective concentration (EC50) in data set [7] amounted to 12 nM. Besides, the selectivity ratio in the data set “in vitro” is over 827.
